Experimental data published in PubChem BioAssay (NCI).
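Briefly, cells in 96-well plates were exposed to five compound concentrations for 48 h, and endpoints were estimated by linear interpolation. Abbreviation: GI50, concentration required for 50% inhibition of growth. TGI: concentration producing complete growth inhibition.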

Columns and labels:
Assay in all cases: NCI tumour cell line growth inhibition, 48 h
[1] = tested on: UACC-62 melanoma
[2] = tested on: NCI-H460 lung
[3] = tested on: TK-10 renal
[4] = tested on: COLO 205 colon
[5] = tested on: UACC-257 melanoma
[6] = tested on: A498 renal
[7] = tested on: NCI/ADR-RES ovarian
[8] = tested on: SF-295 CNS
[9] = tested on: OVCAR-5 ovarian
[10] = tested on: MALME-3M melanoma

SMILES	TGI [1] [µM]	TGI [2] [µM]	TGI [3] [µM]	TGI [4] [µM]	TGI [5] [µM]	TGI [6] [µM]	TGI [7] [µM]	TGI [8] [µM]	TGI [9] [µM]	TGI [10] [µM]	GI50 [7] [µM]
CCOC(=O)c1cn2c(n1)sc1cc(F)ccc12	> 100	> 100	> 100	> 100	> 100	> 100	> 100	> 100	> 100	> 100	
CC(N)/C(N)=N/O (stereo unspecified)	> 100	> 100	> 100	> 100	> 100	> 100	> 100	> 100	> 100	> 100	
NC(Cc1ccccc1)C(=O)NC(Cc1ccccc1)NC(=O)C(Cc1c[nH]c2ccccc12)C(=O)O (stereo unspecified)	> 100	> 100	> 100	> 100	> 100	> 100	> 100	> 100	> 100	> 100	
O=c1[nH]c(=O)n(C2COC(CO)C2O)cc1F (stereo unspecified)	> 100	> 100	> 100	> 100	> 100	> 100	> 100	> 100	> 100	> 100	
O=C(O)C1C2c3ccccc3C(c3ccccc32)C1C(=O)NCC1CC1 (stereo unspecified)	> 100	> 100	> 100	> 100	70.5	> 100	> 100	> 100	> 100	> 100	
O=C(O)Cc1ccc([N+](=O)[O-])cc1[N+](=O)[O-]	> 100	> 100	> 100	> 100	> 100	> 100	> 100	> 100	> 100	> 100	
CC(=O)CC1CCC(=O)/C=C/C(=O)OC(CC(C)=O)CCC(=O)/C=C/C(=O)O1 (stereo unspecified)	29.1	36.3	19	3.4	31.4	33.7	53.2	18.4	31.5	6.72	
CCOC(=O)CCC(NC(=O)C(N)Cc1ccc(N(CCCl)CCCl)cc1)C(=O)OCC (stereo unspecified)	1.4	4.09	4.41	1.85	5.2	> 100	19	11.7	7.19	0.747	3.52
C=C1c2nc3ccccc3n2C=C(c2ccc(OC)cc2)N1c1ccc(OC)cc1	51.8	> 100	24.3	> 100	> 100	64.9	31.8	32.6	> 100	48.4	
C[C@]12[C@@H]3CC[C@H]1[C@@H](O)C(=O)N2CC3	> 100	> 100	> 100	> 100	> 100	> 100	> 100	> 100	> 100	> 100	
COc1ccccc1CC(=O)C(O)(C(F)(F)F)C(F)(F)F	> 100	> 100	> 100	> 100	> 100	> 100	> 100	> 100	> 100	> 100	
C[N+]12C=CC=C1C(N1CCCC1)c1scc(-c3ccc(Br)cc3)c12 (stereo unspecified)	80.3	> 84.7	> 100	39.8	> 51.9	> 100	> 100	> 100	> 100	25.4	
N=c1oc2ccccc2cc1C(=O)NC12CC3CC(CC(C3)C1)C2	62.6	31.4	43.5	32.7	70.9	> 82.1	> 100	67.4	> 100	98.2	
O=C1NC2(CCN(CCc3ccccc3)CC2)Oc2ccccc21	> 100	> 100	> 100	> 100	> 100	> 100	> 100	> 100	> 100	> 100	
COc1ccc(C2c3cc4c(cc3OC3(OC)COC(=O)C23)OCO4)c(OC)c1 (stereo unspecified)	> 85.9	> 100	> 95.6	51.7	> 100	> 92.9	34.5	98.9	> 100	> 100	
CC(C)C(NC(=O)Oc1ccccc1)C(=O)NC1c2c(Br)sc(Br)c2C(=O)C1O (stereo unspecified)	8.08	8.64	> 25	14.4	8.66	> 25	16.5	> 25	15.4	15.5	
